From US10941158B2, “Pyrazole ACC inhibitors and uses thereof” (Gilead Apollo, LLC, priority 2015, dated 2021) come the findings set out here.

Values after ≈ are worked out from the molar mass of the structure shown. Where two headings read alike, the source gives them in different places.

One test concerns Diplodia maydis (Dm). Nature of the test: Growth inhibition assay of fungal pathogens. The settings on record: Stenocarpella maydis, 48 h, read-out: Concentration at 90% Inhibition Dm. Format: cell-based. How it is done: (§1) Compounds of the present invention were evaluated in a growth inhibition assay to determine the ability to control the growth of fungal pathogens, such as Botrtyis cinerea (Bc), Collectotrichum graminicola (Cg). Diplodia maydis (Dm), Fusarium moniliforme (Fm), Fusarium virguliforme (Fv), Phytophthora capsici (Pc), Rhizoctonia solani (Rs), and Septoria tritici (St). Compounds to be tested were dissolved in DMSO at 2.5 mg/ml to produce compound stock solutions (“stocks”). Stocks were diluted with DMSO by a five-fold dilution in a 96-well stock plate, and two sets of final concentrations of 50, 10, and 2 ppm or 2, 0.4, and 0.08 ppm were obtained in vitro. A set of positive controls was also prepared, with various concentrations of Soraphen (2, 0.4, and 0.08 ppm), Metalaxyl (1.1, 0.22, and 0.04 ppm), and Metconazole (2, 0.4, and 0.08 ppm or 0.2, 0.04, and 0.008 ppm) after the five-fold dilutions. Negative controls on each plate included 2% DMSO, water, and a blank (media+2% DMSO). Fungal spores were isolated from previously sub-cultured plates of Botrtyis cinerea (Bc). Collectotrichum graminicola (Cg). Diplodia maydis (Dm), Fusarium moniliforme (Fm), Fusarium virguliforme (Fv), Phytophthora capsici (Pc), and Septoria tritici (St). The isolated spores were diluted to individual concentrations with a 17% V8 liquid media. For Rhizoctonia solani (Rs) and Pythium irregulare, 1.5 mm mycelial plugs were used in place of spores and ¼ Potato Dextrose Broth (PDB) was used for dilution. The spore concentrations and plug sizes were based on growth curves generated at 48 hours for each pathogen. In a second 96-well plate, the spores or mycelial plugs, media, diluted compound solutions, and controls were combined. Once the compound was added, a true final concentration of compound in each well was measured by an OD600 reading, which adjusted for any compound precipitation that might have occurred in the well. Plate readings were repeated at both 24 and 48 hours. The blank negative control was used as a background subtraction. Additional visual ratings were performed at both 24 and 48 hours for checking on precipitation and confirming efficacy. Visual and OD600 ratings of the compounds at 48 hours were compared to the 2% DMSO negative control, and the percent of pathogen growth inhibition was determined based on those values.

The test system of test [1] is Fusarium moniliforme (Fm). Nature of the test: Growth inhibition assay of fungal pathogens. Format: cell-based. Conditions: Fusarium verticillioides, 48 h, 48 hours, read-out: Concentration at 90% Inhibition Fm. How it is done:
as §1

For test [2], the system named is Fusarium virguliforme (Fv). Nature of the test: Growth inhibition assay of fungal pathogens. It is filed as cell-based. The settings on record: 48 h, 48 hours, read-out: Concentration at 90% Inhibition Fv. How it is done: as §1
Another test has as its system Septoria tritici (St). Nature of the test: Growth inhibition assay of fungal pathogens. Format: cell-based. The settings on record: 48 hours; for Concentration at 90% Inhibition St: Table 4b; for IC90: Zymoseptoria tritici, Table 4a, read-out: Concentration at 90% Inhibition St. How it is done: as §1
The test system of test [3] is Collectotrichum graminicola (Cg). Nature of the test: Growth inhibition assay of fungal pathogens. Format: cell-based. Conditions: 48 h, read-out: Concentration at 90% Inhibition Cg. How it is done:
as §1

Another test concerns Botrtyis cinerea (Bc). Nature of the test: Growth inhibition assay of fungal pathogens. Format: cell-based. The settings on record: 48 h, read-out: Concentration at 90% Inhibition Bc. Here is the method:
as §1

A further test has as its system Rhizoctonia solani (Rs). Nature of the test: Growth inhibition assay of fungal pathogens. It is filed as cell-based. Conditions: 48 h, read-out: Concentration at 90% Inhibition Rs. How it is done: as §1
Test [4] relates to Phytophthora capsici (Pc). Nature of the test: Growth inhibition assay of fungal pathogens. The settings on record: 48 hours; for IC90: Phytophthora capsici, Table 4a, read-out: Concentration at 90% Inhibition Pc; for Concentration at 90% Inhibition Pc: Table 4b. It is filed as cell-based. Here is the method:
as §1

The next test addresses human (hACC2) ACC2 (Homo sapiens, UniProt O00763). Nature of the test: In vitro Acetyl-CoA Carboxylase (ACC) inhibition assay (ADP-Glo), hACC2. It is filed as biochemical. Here is the method: The detailed procedure is as follows. […] 10 μL ADP glo reagent was added. […] 20 μL kinase detection reagent was added.
“NA” stands for “not assayed.”

Another test concerns C. albicans ATCC 90028. Nature of the test: Anti-Fungal (Candida) Activity Assay, broth microtiter MIC. Format: cell-based. The settings on record: ATCC90028, 3 replicates, MIC recorded at 48 h, read-out: MIC C. albicans ATCC 90028. Here is the method: (§2) Compounds of the present invention were evaluated in an Anti-Fungal Activity Assay. An exemplary procedure for the assay, which measures the susceptibility of various Candida species to anti-fungal compounds, follows. Compounds to be tested (including fluconazole and amphotericin B) were dissolved in DMSO to obtain a solution having a concentration of 1 mg/mL. […] All species were grown from frozen stock by directly plating on to freshly prepared Sabouraud Dextrose agar (BD, Difco) and incubated overnight in ambient air at 35° C. for 24 h. A direct suspension was prepared in RPMI 1640+MOPS (Lonza, Biowhittaker) by taking individual colonies from the overnight cultures using sterile swabs soaked in sterile saline. The concentration of the suspension was determined using pre-determined standard curves. […] Broth microtiter MIC challenge plates were prepared following CLSI guidelines (M27-A3, Vol. 28 No. 14). The original CLSI guidelines focused on reading Candida MICs after 48 h of incubation. As reading after only 24 h offers a clear advantage of patient care, QC limits are being established for all drugs at 24 h. That being said there are no known interpretive breakpoints for amphotericin B at 24 h and the current fluconazole interpretive breakpoints are based on a 48 h reading. The MIC for the test compounds were recorded at 48 h. All MIC determinations were achieved by visually comparing the growth found in the antibiotic challenged wells to that of the growth control.

A further test deals with C. krusei ATCC 6258. The description is as above. Format: cell-based. Conditions: Pichia kudriavzevii, ATCC6258; 3 replicates, MIC recorded at 48 h; read-out: MIC C. krusei ATCC 6258. How it is done: as §2
For test [5], the system named is C. parapsilosis ATCC 22019. The test is described as above. Format: cell-based. Conditions: Lodderomyces parapsilosis, ATCC22019; 3 replicates, MIC recorded at 48 h; read-out: MIC C. parapsilosis ATCC 22019. Here is the method: as §2

Chain of human (hACC2) ACC2 (O00763 whole entry): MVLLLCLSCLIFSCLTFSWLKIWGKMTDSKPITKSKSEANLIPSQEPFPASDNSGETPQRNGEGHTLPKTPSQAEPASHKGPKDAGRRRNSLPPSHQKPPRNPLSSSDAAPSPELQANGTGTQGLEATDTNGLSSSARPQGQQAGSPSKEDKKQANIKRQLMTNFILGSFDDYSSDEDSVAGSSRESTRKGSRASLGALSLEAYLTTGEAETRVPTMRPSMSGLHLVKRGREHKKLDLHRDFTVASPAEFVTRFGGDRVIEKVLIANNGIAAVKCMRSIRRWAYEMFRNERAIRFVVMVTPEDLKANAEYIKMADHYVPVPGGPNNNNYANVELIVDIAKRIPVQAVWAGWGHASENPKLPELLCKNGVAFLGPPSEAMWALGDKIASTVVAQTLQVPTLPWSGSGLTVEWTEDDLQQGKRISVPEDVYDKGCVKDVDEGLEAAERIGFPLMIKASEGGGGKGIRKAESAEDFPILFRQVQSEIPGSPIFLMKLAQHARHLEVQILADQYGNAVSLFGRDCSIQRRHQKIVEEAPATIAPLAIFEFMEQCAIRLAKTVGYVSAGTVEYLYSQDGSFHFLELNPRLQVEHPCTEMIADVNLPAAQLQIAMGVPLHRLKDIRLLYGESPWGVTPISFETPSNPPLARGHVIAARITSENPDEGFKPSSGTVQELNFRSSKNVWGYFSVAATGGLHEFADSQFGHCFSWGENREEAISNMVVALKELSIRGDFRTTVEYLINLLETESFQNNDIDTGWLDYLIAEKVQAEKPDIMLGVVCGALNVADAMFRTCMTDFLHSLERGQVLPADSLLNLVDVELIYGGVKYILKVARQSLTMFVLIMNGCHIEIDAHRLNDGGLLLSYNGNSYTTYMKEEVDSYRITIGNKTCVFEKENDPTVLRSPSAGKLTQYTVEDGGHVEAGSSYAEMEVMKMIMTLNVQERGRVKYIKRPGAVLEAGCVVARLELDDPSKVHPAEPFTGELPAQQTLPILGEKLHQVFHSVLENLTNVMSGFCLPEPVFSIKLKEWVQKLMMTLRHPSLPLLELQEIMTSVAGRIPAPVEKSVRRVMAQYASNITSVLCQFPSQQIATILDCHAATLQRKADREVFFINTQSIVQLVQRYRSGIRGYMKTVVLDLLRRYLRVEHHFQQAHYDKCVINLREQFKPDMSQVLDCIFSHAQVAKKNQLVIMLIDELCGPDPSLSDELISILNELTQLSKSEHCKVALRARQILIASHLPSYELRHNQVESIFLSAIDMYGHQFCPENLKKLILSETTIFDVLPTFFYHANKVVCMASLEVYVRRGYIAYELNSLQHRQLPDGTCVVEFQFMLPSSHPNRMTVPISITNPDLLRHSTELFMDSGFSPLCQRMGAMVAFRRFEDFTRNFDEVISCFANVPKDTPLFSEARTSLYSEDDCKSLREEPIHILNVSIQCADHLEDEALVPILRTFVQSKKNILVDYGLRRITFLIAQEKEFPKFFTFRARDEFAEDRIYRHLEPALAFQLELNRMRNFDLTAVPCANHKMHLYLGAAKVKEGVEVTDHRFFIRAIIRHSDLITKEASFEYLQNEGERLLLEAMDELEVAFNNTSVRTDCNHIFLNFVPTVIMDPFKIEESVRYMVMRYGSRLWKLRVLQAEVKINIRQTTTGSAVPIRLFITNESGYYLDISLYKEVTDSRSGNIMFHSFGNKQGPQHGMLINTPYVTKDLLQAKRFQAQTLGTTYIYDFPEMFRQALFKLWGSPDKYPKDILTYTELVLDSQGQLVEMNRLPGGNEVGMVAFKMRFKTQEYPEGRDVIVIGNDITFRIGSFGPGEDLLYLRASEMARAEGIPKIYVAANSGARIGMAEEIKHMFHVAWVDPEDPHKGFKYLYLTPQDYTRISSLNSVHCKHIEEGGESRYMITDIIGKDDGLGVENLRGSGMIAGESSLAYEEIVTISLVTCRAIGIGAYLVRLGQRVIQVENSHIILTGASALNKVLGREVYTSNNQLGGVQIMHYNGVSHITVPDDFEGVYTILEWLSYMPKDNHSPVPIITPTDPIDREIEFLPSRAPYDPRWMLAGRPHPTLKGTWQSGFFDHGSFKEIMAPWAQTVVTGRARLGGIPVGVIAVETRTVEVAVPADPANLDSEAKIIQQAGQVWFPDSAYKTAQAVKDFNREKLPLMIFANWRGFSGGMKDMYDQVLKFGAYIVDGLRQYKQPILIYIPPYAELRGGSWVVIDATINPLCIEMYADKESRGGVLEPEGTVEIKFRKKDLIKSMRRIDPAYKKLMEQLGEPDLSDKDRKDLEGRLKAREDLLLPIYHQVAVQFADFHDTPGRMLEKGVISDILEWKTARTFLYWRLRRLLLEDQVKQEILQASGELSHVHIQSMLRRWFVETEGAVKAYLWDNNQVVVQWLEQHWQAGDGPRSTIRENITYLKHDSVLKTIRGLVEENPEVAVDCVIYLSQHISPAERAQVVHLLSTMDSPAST

In the case of `COc1ccccc1[C@H](Cn1c(=O)n(C(C)(C)C(=O)N2CCCC2)c(=O)c2c(C)c(-n3cccn3)sc21)OC1CCOCC1` [Compound I-12, (R)-1-(2-(2-methoxyphenyl)-2-((tetrahydro-2H-pyran-4-yl)oxy)ethyl)-5-methyl-3-(2-methyl-1-oxo-1-(pyrrolidin-1-yl)propan-2-yl)-6-(1H-pyrazol-1-yl)thieno[2,3-d]pyrimidine-2,4(1H,3H)-dione], the IC90 with Diplodia maydis (Dm) (Table 4a) was > 50 µg/mL; in the test with Diplodia maydis (Dm) (Table 4b) it was 10 µg/mL (≈ 16.1 µM); in test [1] (Table 4a) it was 0.4 µg/mL (≈ 0.643 µM); in test [1] (Table 4b), 0.4 µg/mL (≈ 0.643 µM); in test [2] (Table 4a), > 50 µg/mL; in test [2] (Table 4b) it was 10 µg/mL (≈ 16.1 µM). In addition, the IC90 was > 50 µg/mL in the test with Septoria tritici (St); 10 µg/mL (≈ 16.1 µM) in [3] (Table 4a); 2 µg/mL (≈ 3.22 µM) in test [3] (Table 4b); > 50 µg/mL in the test with Botrtyis cinerea (Bc) (Table 4a); 10 µg/mL (≈ 16.1 µM) in the test on Botrtyis cinerea (Bc) (Table 4b); 2 µg/mL (≈ 3.22 µM) in the test on Rhizoctonia solani (Rs) (Table 4a). Further, the IC90 with Rhizoctonia solani (Rs) (Table 4b) is 2 µg/mL (≈ 3.22 µM); in [4] it was > 50 µg/mL. Also, in the test on Septoria tritici (St), the “Concentration at 90% Inhibition St” value is recorded as “D (“D” provided a compound concentration of >50 ppm at 90% inhibition of fungal pathogens)”. In test [4], the “Concentration at 90% Inhibition Pc” value is “D (“D” provided a compound concentration of >50 ppm at 90% inhibition of fungal pathogens)”. On human (hACC2) ACC2, this compound had an IC50 of 3 to 10 nM. Further, the MIC is 2.1 to 4 µg/mL (≈ 3.38 to 6.43 µM) in the test on C. albicans ATCC 90028, 2.1 to 4 µg/mL (≈ 3.38 to 6.43 µM) in the test on C. krusei ATCC 6258 and > 4.1 µg/mL in test [5].
For `COc1ccc(F)cc1[C@H](Cn1c(=O)n(C(C)(C)C(N)=O)c(=O)c2c(C)c(-n3cccn3)sc21)O[C@H]1CC[C@@H](O)CC1` [Compound I-5, 2-(1-((R)-2-(5-fluoro-2-methoxyphenyl)-2-(((s,4S)-4-hydroxycyclohexyl)oxy)ethyl)-5-methyl-2,4-dioxo-6-(1H-pyrazol-1-yl)-1,4-dihydro-thieno[2,3-d]pyrimidin-3(2H)-yl)-2-methylpropanamide], the IC90 in the test on Diplodia maydis (Dm) (Table 4a) is > 50 µg/mL; in the test on Diplodia maydis (Dm) (Table 4b) it was 10 µg/mL (≈ 16.7 µM); in [1] (Table 4a), 2 µg/mL (≈ 3.34 µM); in test [1] (Table 4b), 2 µg/mL (≈ 3.34 µM); in [2] (Table 4a), > 50 µg/mL; in test [2] (Table 4b) it was 10 µg/mL (≈ 16.7 µM). Also, the IC90 with Septoria tritici (St) was > 50 µg/mL; in test [3] (Table 4a), > 50 µg/mL; in test [3] (Table 4b), > 50 µg/mL; in the test on Botrtyis cinerea (Bc) (Table 4a) it was 2 µg/mL (≈ 3.34 µM); in the test with Botrtyis cinerea (Bc) (Table 4b), 2 µg/mL (≈ 3.34 µM); in the test with Rhizoctonia solani (Rs) (Table 4a), > 50 µg/mL. The IC90 is 10 µg/mL (≈ 16.7 µM) in the test with Rhizoctonia solani (Rs) (Table 4b) and > 50 µg/mL in [4]. In addition, the “Concentration at 90% Inhibition St” value in the test on Septoria tritici (St) is on record as “D (“D” provided a compound concentration of >50 ppm at 90% inhibition of fungal pathogens)”. Besides, in test [4], the “Concentration at 90% Inhibition Pc” value was “D (“D” provided a compound concentration of >50 ppm at 90% inhibition of fungal pathogens)”. On human (hACC2) ACC2, the IC50 was in the range of 3 to 10 nM. Moreover, the MIC in the test with C. albicans ATCC 90028 fell in the range of 1.1 to 2 µg/mL (≈ 1.83 to 3.34 µM); in the test on C. krusei ATCC 6258 it was 1.1 to 2 µg/mL (≈ 1.83 to 3.34 µM); in test [5], 2.1 to 4 µg/mL (≈ 3.5 to 6.67 µM).
